Measured values reported in ChEMBL document CHEMBL5360521, “A chemical perspective on the modulation of TEAD transcriptional activities: Recent progress, challenges, and opportunities” (Eur J Med Chem, 2022).
One block for each compound: values may come before it.

Legend:
[1] = Inhibition of YAP/TEAD in HEK293 cells by Split Gaussia Luciferase Assay; format: cell-based, HEK293T; details: Homo sapiens, HEK-293T
[2] = target: Transcriptional enhancer factor TEF-1 (Homo sapiens, UniProt P28347); assay: Inhibition of N-terminal 6xHis-tagged human TEAD1 auto palmitoylation (209 to 426 residues) expressed in Escherichia coli BL21 (DE3) cells by ABPP assay
Chain of Transcriptional enhancer factor TEF-1 (P28347 whole entry, the tested form may be a part): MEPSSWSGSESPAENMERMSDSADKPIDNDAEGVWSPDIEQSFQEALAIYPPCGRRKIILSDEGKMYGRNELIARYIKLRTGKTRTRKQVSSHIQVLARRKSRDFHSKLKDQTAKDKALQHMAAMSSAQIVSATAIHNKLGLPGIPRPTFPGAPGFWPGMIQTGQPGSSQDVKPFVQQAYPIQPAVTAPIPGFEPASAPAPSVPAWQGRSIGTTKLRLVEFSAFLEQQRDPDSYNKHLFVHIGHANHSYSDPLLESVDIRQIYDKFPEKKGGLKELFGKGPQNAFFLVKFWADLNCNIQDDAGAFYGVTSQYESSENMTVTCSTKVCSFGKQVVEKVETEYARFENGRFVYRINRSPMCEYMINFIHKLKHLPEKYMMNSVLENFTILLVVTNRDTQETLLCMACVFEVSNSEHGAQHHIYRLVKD

[3] = target: Transcriptional enhancer factor TEF-5 (Homo sapiens, UniProt Q99594); assay: Inhibition of N-terminal 6xHis-tagged human TEAD3 auto palmitoylation (209 to 426 residues) expressed in Escherichia coli BL21 (DE3) cells by ABPP assay
Chain of Transcriptional enhancer factor TEF-5 (Q99594 whole entry, the tested form may be a part): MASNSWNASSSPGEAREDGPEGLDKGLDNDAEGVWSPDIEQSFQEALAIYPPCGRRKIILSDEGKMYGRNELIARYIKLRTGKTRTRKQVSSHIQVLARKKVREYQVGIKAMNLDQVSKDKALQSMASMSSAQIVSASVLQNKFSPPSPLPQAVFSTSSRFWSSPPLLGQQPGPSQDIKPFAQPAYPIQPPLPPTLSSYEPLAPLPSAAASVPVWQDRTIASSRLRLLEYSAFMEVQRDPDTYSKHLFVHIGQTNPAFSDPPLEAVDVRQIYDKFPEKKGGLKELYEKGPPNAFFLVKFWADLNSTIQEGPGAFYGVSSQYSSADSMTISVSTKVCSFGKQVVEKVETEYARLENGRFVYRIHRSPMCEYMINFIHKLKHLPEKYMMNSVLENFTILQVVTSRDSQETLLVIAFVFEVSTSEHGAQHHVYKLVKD

NCI-H226 [4] = assay: Antiproliferative activity against human NCI-H226 cells assessed as cells growth inhibition incubated for 144 hrs by CCK-8 assay; format: functional, cell-based; details: NCI-H226, 144 h
MSTO-211H = assay: Antiproliferative activity against human MSTO-211H cells assessed as cell growth inhibition incubated for 144 hrs by CCK-8 assay; format: functional, cell-based
[5] = Antiproliferative activity against human Mero-14 cells assessed as cell growth inhibition incubated for 144 hrs by CCK-8 assay; format: functional, cell-based; details: Mero-14, 144 h
NCI-H226 [6] = assay: Antitumor activity against human NCI-H226 cells xenografted BALB/c mouse assessed as tumor growth inhibition at 2 mg/kg, po qd for 28 days relative to control; format: functional; details: NCI-H226, 672 h, time 28 day, read-out: TGI
NCI-H226 [7] = assay: Antitumor activity against human NCI-H226 cells xenografted BALB/c mouse assessed as tumor growth inhibition at 10 mg/kg, po qd for 28 days relative to control; format: functional; details: NCI-H226, 672 h, time 28 day, read-out: TGI
[8] = Inhibition of TEAD auto palmitoylation (unknown origin); design: species or system Homo sapiens

SMILES: C=CC(=O)Nc1ccc(C)c(Oc2ccc(Cl)cc2)c1
IC50 (NCI-H226 [4]): < 100 nM | IC50 (MSTO-211H): < 100 nM | IC50 [5]: < 100 nM

SMILES: C=C(F)C(=O)N1CC(n2nc(-c3ccc(C(F)(F)F)nc3)c3cccnc32)C1
inhibition in vivo at 2 mg/kg (NCI-H226 [6]): 67%

SMILES: C=C(F)C(=O)N1CC(n2nc(-c3ccc(C(F)(F)F)cc3)c3cccnc32)C1
inhibition in vivo at 10 mg/kg (NCI-H226 [7]): 101%

Results, then the compound that gave them:

IC50 [1]: 800 nM
SMILES: C=CC(=O)N1CCC(C)(Nc2cccc(C(F)(F)F)c2)C1 (centres undefined)

IC50 [2]: 580 nM | IC50 [3]: 610 nM
SMILES: C=CC(=O)N1CCC(CCOc2ccccc2)CC1

EC50 [8]: 25 nM
SMILES: CNS(=O)(=O)c1ccc(NCc2ccc(C(F)(F)F)cc2)c(-c2cn(C)cn2)c1
